# According to ChEMBL document CHEMBL4007494, “Structural Basis of Small-Molecule Aggregate Induced Inhibition of a Protein-Protein Interaction” (J Med Chem, 2017):
# Activity calls are given as the source filed them. The rule behind the calls is not given here.
# Columns and labels:
# [1] = Critical aggregation concentration assessed as formation of aggregate after 30 mins in presence of triton X-100 by light scattering method
# [2] = Critical aggregation concentration assessed as formation of aggregate after 30 mins by light scattering method
# Tumor necrosis factor [3] = molecular target: T1, Tumor necrosis factor (Homo sapiens, UniProt P01375); test: Binding affinity to human TNF-alpha soluble domain assessed as decrease in complex formation with human TNFR1 extracellular domain preincubated for 1 hr followed by receptor addition measure after 2 hrs by TR-FRET assay
# Tumor necrosis factor [4] = molecular target: T1, Tumor necrosis factor; test: Binding affinity to human TNF-alpha soluble domain assessed as decrease in complex formation with human TNFR2 extracellular domain preincubated for 1 hr followed by receptor addition measure after 2 hrs by TR-FRET assay
# Tumor necrosis factor [5] = molecular target: T1, Tumor necrosis factor; conditions: 50 uM
# Description: Binding affinity to human TNF-alpha soluble domain assessed as sedimentation velocity constant s20,w at 50 uM after 3 hrs by ultracentrifugation method
# T1 sequence (P01375 whole entry, the tested form may be a part): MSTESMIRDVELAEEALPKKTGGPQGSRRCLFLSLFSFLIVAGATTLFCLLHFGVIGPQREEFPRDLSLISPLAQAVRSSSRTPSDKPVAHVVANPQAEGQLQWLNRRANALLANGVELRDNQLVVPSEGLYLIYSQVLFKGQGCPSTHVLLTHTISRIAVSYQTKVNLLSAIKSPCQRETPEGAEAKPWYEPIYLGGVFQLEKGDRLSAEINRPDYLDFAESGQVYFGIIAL
Compound,CAC [1],CAC [2],IC50 (Tumor necrosis factor [3]) [nM],IC50 (Tumor necrosis factor [4]) [nM],"S20,w (Tumor necrosis factor [5])"
Clc1ccc(COC(Cn2ccnc2)c2ccc(Cl)cc2Cl)c(Cl)c1 (stereo not drawn),inactive,Dose-dependent effect,,,
Cc1cc2occ(CN(C)CCN(C)Cc3cn(-c4cccc(C(F)(F)F)c4)c4ccccc34)c(=O)c2cc1C,,10 µM,,,
Nc1nccc(N(Cc2ccccc2)c2ccccc2-c2cccc(-c3cnc(N4CCNCC4)nc3)c2)n1,inactive,1 µM,1200,1100,3.09
